Some test systems named below: SK-OV-3; SN12C; IGROV-1; HCT-116; A549; BT-549; SK-MEL-28; SF-539; MCF7; LOX IMVI; NCI-H23; MDA-N; HCC 2998; SW-620; U-251; NCI-H460; OVCAR-8; MDA-MB-231; HT-29; Malme-3M.
Common to all, as to assay: DTP human tumour cell line panel, 48 h

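Dose response: 5 concentrations. Exposure: 48 h. Format: 96-well plates. Endpoint: linear interpolation; highest concentration if not reached. Abbreviation: GI50, concentration required for 50% inhibition of growth.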 The source made the active and inactive calls. No stated cut-off is given here; in the data, active = GI50 up to about 1.1 µM and inactive = higher.

On to `CC1=CC(=O)/C(=C/n2c(=S)[nH]c3cc(C)ccc32)C(=O)O1`, for which the GI50 with SK-OV-3, with SN12C, in the experiment with IGROV-1, in the experiment on HCT-116, with A549 and with BT-549 was > 100 µM (inactive) throughout. Besides, the GI50 with SK-MEL-28, with SF-539, in the experiment on MCF7, in the experiment on LOX IMVI, with NCI-H23 and in the experiment on MDA-N was > 100 µM (inactive) throughout. Moreover, the GI50 with HCC 2998, in the experiment with SW-620, in the experiment with U-251, in the experiment on NCI-H460, with OVCAR-8 and in the experiment with MDA-MB-231 was > 100 µM (inactive) in each case. In the experiment on HT-29, the GI50 was > 100 µM (inactive).

With `Cc1cc(C)c2c(O)c(S(=O)(=O)c3ccc(Cl)cc3)c(=O)oc2c1`, the GI50 is 70.8 µM (inactive) in the experiment with SK-OV-3; 65.3 µM (inactive) in the experiment with SN12C; 31.7 µM (inactive) with IGROV-1; 53.5 µM (inactive) in the experiment with HCT-116; 46.3 µM (inactive) in the experiment on A549; 67.9 µM (inactive) in the experiment on BT-549. For the same compound, the GI50 was 51.9 µM (inactive) with SK-MEL-28; > 100 µM (inactive) in the experiment with SF-539; 50.6 µM (inactive) in the experiment with MCF7; 84.1 µM (inactive) in the experiment with NCI-H23; 79.1 µM (inactive) in the experiment with MDA-N; 68.7 µM (inactive) in the experiment with SW-620. The GI50 was 37.7 µM (inactive) with U-251; 59.7 µM (inactive) with Malme-3M; 52.2 µM (inactive) in the experiment with NCI-H460; 29.2 µM (inactive) in the experiment on OVCAR-8; 78.7 µM (inactive) with MDA-MB-231; 95.3 µM (inactive) in the experiment on HT-29.

As for `COc1cc2c(c(O)c1OC)C(O)C1CCC(=O)N1C2c1cccc2ccccc12` (stereo not drawn), the GI50 in the experiment on SK-OV-3 was 56.1 µM (inactive); in the experiment on SN12C, > 100 µM (inactive); in the experiment on IGROV-1, > 100 µM (inactive); with HCT-116 it was > 100 µM (inactive); with A549 it was 99.1 µM (inactive); in the experiment on BT-549, > 100 µM (inactive). Further, the GI50 was > 100 µM (inactive) in the experiment on SK-MEL-28; > 100 µM (inactive) in the experiment with SF-539; > 100 µM (inactive) with MCF7; > 100 µM (inactive) in the experiment with NCI-H23; 76.4 µM (inactive) in the experiment on MDA-N; > 100 µM (inactive) in the experiment with SW-620. Moreover, the GI50 in the experiment on U-251 is > 100 µM (inactive); with Malme-3M, 36.9 µM (inactive); with NCI-H460 it was > 100 µM (inactive); with OVCAR-8, > 100 µM (inactive); in the experiment with MDA-MB-231, 89.5 µM (inactive); in the experiment with HT-29, > 100 µM (inactive).

As for `Cc1cn([C@@H]2C[C@@H]2CO)c(=O)[nH]c1=O`, the GI50 in the experiment on SN12C, with IGROV-1, in the experiment on HCT-116, in the experiment with A549, in the experiment on BT-549 and in the experiment with SK-MEL-28 was > 100 µM (inactive) throughout. Also, the GI50 in the experiment on SF-539, in the experiment with MCF7, in the experiment with LOX IMVI, in the experiment on NCI-H23, in the experiment on MDA-N and in the experiment with HCC 2998 was > 100 µM (inactive) throughout. The GI50 in the experiment with SW-620, in the experiment with U-251, in the experiment with Malme-3M, with NCI-H460, in the experiment on OVCAR-8 and in the experiment on MDA-MB-231 was > 100 µM (inactive) each time. Further, the GI50 in the experiment with HT-29 is > 100 µM (inactive).

Turning to `COc1ccccc1N1C(=O)CSC1c1cc(OC)c(OC)c(OC)c1` (stereo not drawn), the GI50 was > 100 µM (inactive) in the experiment on SN12C; 33 µM (inactive) in the experiment with IGROV-1; 13.3 µM (inactive) with HCT-116; > 100 µM (inactive) in the experiment on A549; > 34 µM (inactive) with BT-549; > 89.9 µM (inactive) in the experiment with SK-MEL-28. For the same compound, the GI50 with SF-539 is 15.8 µM (inactive); with MCF7, 16.3 µM (inactive); in the experiment on LOX IMVI, 35.6 µM (inactive); in the experiment with NCI-H23, > 100 µM (inactive); with MDA-N, 11.9 µM (inactive); in the experiment on HCC 2998, > 100 µM (inactive). The GI50 in the experiment on SW-620 was 27.5 µM (inactive); in the experiment with U-251, 31.1 µM (inactive); in the experiment with Malme-3M, > 22.3 µM (inactive); in the experiment on NCI-H460, > 100 µM (inactive); in the experiment on OVCAR-8 it was > 100 µM (inactive); with MDA-MB-231 it was > 100 µM (inactive). Besides, the GI50 in the experiment on HT-29 is > 100 µM (inactive).

As to `COc1ccc(C2Oc3c(cccc3OC)C=C2[N+](=O)[O-])cc1OC` (stereo not drawn), the GI50 in the experiment with SK-OV-3 is 4.9 µM (inactive); with SN12C, 5.55 µM (inactive); in the experiment with IGROV-1, 11.9 µM (inactive); with HCT-116, 4.55 µM (inactive); with A549, 14.7 µM (inactive); in the experiment with BT-549 it was 5.47 µM (inactive). Besides, the GI50 is 4.22 µM (inactive) in the experiment with SK-MEL-28; 4.12 µM (inactive) in the experiment on MCF7; 2.49 µM (inactive) with LOX IMVI; 4.41 µM (inactive) in the experiment with NCI-H23; 5.19 µM (inactive) in the experiment with MDA-N; 3.97 µM (inactive) in the experiment on U-251. Further, the GI50 is 7.59 µM (inactive) in the experiment with Malme-3M; 21.5 µM (inactive) with NCI-H460; 8.93 µM (inactive) with OVCAR-8; 9.91 µM (inactive) with MDA-MB-231; 18.5 µM (inactive) in the experiment with HT-29.

Take `COc1ccc(NCc2cccc3c(=O)c4ccc(Cl)cc4oc23)cc1`: the GI50 in the experiment on SK-OV-3, with SN12C, in the experiment with IGROV-1, in the experiment with HCT-116, with A549 and with BT-549 was > 100 µM (inactive) throughout. Besides, the GI50 with SK-MEL-28, in the experiment with SF-539, in the experiment with MCF7, with LOX IMVI, with NCI-H23 and with MDA-N was > 100 µM (inactive) throughout. Moreover, the GI50 in the experiment on HCC 2998, in the experiment on SW-620, in the experiment on U-251, in the experiment on Malme-3M, in the experiment on OVCAR-8 and with MDA-MB-231 was > 100 µM (inactive) each time.

`COC(=O)Nc1nc2cc(NC(=O)c3ccc(I)cc3)ccc2[nH]1`: the GI50 with SK-OV-3, with SN12C, in the experiment with IGROV-1, in the experiment on HCT-116, with A549 and in the experiment with BT-549 was > 100 µM (inactive) each time. Moreover, the GI50 with SK-MEL-28, in the experiment with SF-539, in the experiment with MCF7, in the experiment with LOX IMVI, in the experiment on NCI-H23 and with MDA-N was > 100 µM (inactive) in each case. Besides, the GI50 is > 100 µM (inactive) in the experiment on SW-620; > 100 µM (inactive) in the experiment with U-251; 72.6 µM (inactive) with Malme-3M; > 100 µM (inactive) in the experiment with NCI-H460; > 100 µM (inactive) in the experiment on OVCAR-8; > 100 µM (inactive) in the experiment on MDA-MB-231. Moreover, the GI50 in the experiment on HT-29 was > 100 µM (inactive).

For the compound `Cc1ccc2c(c1)[nH]c(=S)n2C=C1C(=O)CC(C)(C)CC1=O`, the GI50 is > 100 µM (inactive) in the experiment with SK-OV-3; > 100 µM (inactive) in the experiment with SN12C; 15.8 µM (inactive) in the experiment with IGROV-1; > 100 µM (inactive) in the experiment on HCT-116; > 100 µM (inactive) in the experiment on A549; > 100 µM (inactive) with BT-549. Moreover, the GI50 in the experiment with SK-MEL-28, with SF-539, with MCF7, in the experiment with LOX IMVI, in the experiment on NCI-H23 and with MDA-N was > 100 µM (inactive) each time. The GI50 in the experiment with HCC 2998, in the experiment on SW-620, in the experiment on U-251, in the experiment with NCI-H460, with OVCAR-8 and in the experiment on MDA-MB-231 was > 100 µM (inactive) each time. For the same compound, the GI50 in the experiment with HT-29 is > 100 µM (inactive).

In the case of `O=C(c1cc(Cl)ccc1Cl)N1CCN(c2cccc(Cl)c2)CC1`, the GI50 in the experiment on SN12C is 4.09 µM (inactive); in the experiment with IGROV-1, 10.8 µM (inactive); with HCT-116, 11.4 µM (inactive); with A549 it was 11 µM (inactive); with BT-549, 8.61 µM (inactive); in the experiment on SK-MEL-28, 15.6 µM (inactive). Further, the GI50 with SF-539 was 13.6 µM (inactive); in the experiment with MCF7, 12.4 µM (inactive); in the experiment on LOX IMVI, 10.9 µM (inactive); with NCI-H23, 32.9 µM (inactive); with MDA-N, 1.87 µM (inactive); in the experiment on HCC 2998 it was 13.5 µM (inactive). Moreover, the GI50 in the experiment on SW-620 is 24.2 µM (inactive); with U-251, 19 µM (inactive); in the experiment with Malme-3M, 11.1 µM (inactive); with NCI-H460, 14.6 µM (inactive); in the experiment with OVCAR-8 it was 14.8 µM (inactive); in the experiment on MDA-MB-231 it was 5.6 µM (inactive). Besides, the GI50 in the experiment with HT-29 was 12.4 µM (inactive).

`COC(=O)c1ccc(/C=N/c2ccc(S(N)(=O)=O)cc2)cc1`: the GI50 in the experiment on SK-OV-3 was > 100 µM (inactive); with SN12C it was 73.8 µM (inactive); with HCT-116, 37.1 µM (inactive); with A549, > 100 µM (inactive); in the experiment with BT-549, > 100 µM (inactive); in the experiment on SK-MEL-28 it was > 100 µM (inactive). Besides, the GI50 is 38.2 µM (inactive) with SF-539; 41.8 µM (inactive) with MCF7; 33.5 µM (inactive) in the experiment on LOX IMVI; 0.0188 µM (active) in the experiment with NCI-H23; 59.7 µM (inactive) with MDA-N; > 100 µM (inactive) in the experiment on HCC 2998. Besides, the GI50 in the experiment with U-251 was 67 µM (inactive); in the experiment with Malme-3M it was 85.5 µM (inactive); in the experiment with NCI-H460, > 100 µM (inactive); in the experiment with OVCAR-8 it was 89.1 µM (inactive); in the experiment on MDA-MB-231, > 100 µM (inactive); in the experiment with HT-29, > 100 µM (inactive).

Values taken from ChEMBL document CHEMBL1201862, “PubChem BioAssay data set” (2004).
